Measurements published in US20170050957A1, “4-AMINO-6-(HETEROCYCLIC)PICOLINATES AND 6-AMINO-2-(HETEROCYCLIC)PYRIMIDINE-4-CARBOXYLATES AND THEIR USE AS HERBICIDES” (Dow AgroSciences LLC, priority 2013, published 2017).
Read-outs that look alike come from different tables or passages of the source.

Columns and labels:
[1] = test system: Key Broadleaf Weed and Crop Species; assay: Post-emergent Test II herbicidal activity (Table 15); format: in vivo; details: post-emergence, 336 h, 14 d; for pest or weed control at 35 g/ha: 35 g ai/ha; for pest or weed control at 70 g/ha: 70 g ai/ha; for pest or weed control at 140 g/ha: 140 g ai/ha
Summary of the method: (§1)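 Plants grown in greenhouse (~15 h photoperiod, 23-29 °C day, 22-28 °C night) to first or second true leaf stage, then sprayed post-emergence at 187 L/ha with a high rate and 1/2×, 1/4×, 1/8× and 1/16× dilutions. Injury scored visually after 14 d, 0-100% versus untreated plants.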

[2] = test system: Key Grass and Sedge Weeds as well as Grass Crops; assay: Post-emergent Test II herbicidal activity (Table 16); format: in vivo; details: post-emergence, 336 h, 14 d; for pest or weed control at 35 g/ha: 35 g ai/ha; for pest or weed control at 70 g/ha: 70 g ai/ha; for pest or weed control at 140 g/ha: 140 g ai/ha
Summary of the method: as §1

[3] = Abutilon theophrasti, velvetleaf (Abutilon theophrasti), read-out: Visual Growth Reduction (%) 14 Days After Application, ABUTH
[4] = Amaranthus retroflexus, redroot pigweed (Amaranthus retroflexus), read-out: Visual Growth Reduction (%) 14 Days After Application, AMARE
[5] = Brassica napus, oilseed rape, canola (Brassica napus), read-out: Visual Growth Reduction (%) 14 Days After Application, BRSNN
[6] = Chenopodium album, lambsquarters (Chenopodium album), read-out: Visual Growth Reduction (%) 14 Days After Application, CHEAL
[7] = Euphorbia heterophylla, wild poinsettia (Euphorbia heterophylla), read-out: Visual Growth Reduction (%) 14 Days After Application, EPHHL
[8] = Helianthus annuus, sunflower (Helianthus annuus), read-out: Visual Growth Reduction (%) 14 Days After Application, HELAN
[9] = Cyperus esculentus, yellow nutsedge (Cyperus esculentus), read-out: Visual Growth Reduction (%) 14 Days After Application, CYPES
[10] = Echinochloa crus-galli, barnyardgrass (Echinochloa crus-galli), read-out: Visual Growth Reduction (%) 14 Days After Application, ECHCG
[11] = Oryza sativa, rice (Oryza sativa), read-out: Visual Growth Reduction (%) 14 Days After Application, ORYSA
[12] = Setaria faberi, giant foxtail (Setaria faberi), read-out: Visual Growth Reduction (%) 14 Days After Application, SETFA
[13] = Triticum aestivum, wheat, spring (Triticum aestivum), read-out: Visual Growth Reduction (%) 14 Days After Application, TRZAS
[14] = Zea mays, maize, corn (Zea mays), read-out: Visual Growth Reduction (%) 14 Days After Application, ZEAMX

Row | SMILES | pest or weed control at 35 g/ha [1, 3] | pest or weed control at 70 g/ha [1, 3] | pest or weed control at 140 g/ha [1, 3] | pest or weed control at 35 g/ha [1, 4] | pest or weed control at 70 g/ha [1, 4] | pest or weed control at 140 g/ha [1, 4] | pest or weed control at 35 g/ha [1, 5] | pest or weed control at 70 g/ha [1, 5] | pest or weed control at 140 g/ha [1, 5] | pest or weed control at 35 g/ha [1, 6] | pest or weed control at 70 g/ha [1, 6] | pest or weed control at 140 g/ha [1, 6] | pest or weed control at 35 g/ha [1, 7] | pest or weed control at 70 g/ha [1, 7] | pest or weed control at 140 g/ha [1, 7] | pest or weed control at 35 g/ha [1, 8] | pest or weed control at 70 g/ha [1, 8] | pest or weed control at 140 g/ha [1, 8] | melting point | pest or weed control at 35 g/ha [2, 9] | other results
1 | COC(=O)c1nc(-c2ccc(Cl)c3ccoc23)cc(N)c1Cl [Compound 2.25] | 75 to 84% | 75 to 84% | 95 to 100% | 95 to 100% | 95 to 100% | 95 to 100% | 0 to 29% | 45 to 59% | 75 to 84% | 95 to 100% | 95 to 100% | 95 to 100% | 0 to 29% | 75 to 84% | 85 to 94% | 0 to 29% | 30 to 44% | 85 to 94% | 169 °C | 0 to 29% | pest or weed control at 70 g/ha [2, 9]: 30 to 44%; pest or weed control at 140 g/ha [2, 9]: 75 to 84%; pest or weed control at 35 g/ha [2, 10]: 0 to 29%; pest or weed control at 70 g/ha [2, 10]: 0 to 29%; pest or weed control at 140 g/ha [2, 10]: 0 to 29%; pest or weed control at 35 g/ha [2, 11]: 0 to 29%; pest or weed control at 70 g/ha [2, 11]: 0 to 29%; pest or weed control at 140 g/ha [2, 11]: 0 to 29%; pest or weed control at 35 g/ha [2, 12]: 0 to 29%; pest or weed control at 70 g/ha [2, 12]: 0 to 29%; pest or weed control at 140 g/ha [2, 12]: 0 to 29%; pest or weed control at 35 g/ha [2, 13]: 0 to 29%; pest or weed control at 70 g/ha [2, 13]: 0 to 29%; pest or weed control at 140 g/ha [2, 13]: 0 to 29%; pest or weed control at 35 g/ha [2, 14]: 0 to 29%; pest or weed control at 70 g/ha [2, 14]: 0 to 29%; pest or weed control at 140 g/ha [2, 14]: 45 to 59%
2 | Nc1c(Cl)c(C(=O)O)nc(-c2ccc3sccc3c2)c1Cl [Compound 3.02, 4-Amino-6-(benzo[b]thiophen-5-yl)-3,5-dichloropicolinic acid] | 0 to 29% | 0 to 29% | 0 to 29% | 95 to 100% | 95 to 100% | 95 to 100% | 0 to 29% | 0 to 29% | 0 to 29% | 85 to 94% | 85 to 94% | 85 to 94% | 0 to 29% | 0 to 29% | 0 to 29% | 60 to 74% | 75 to 84% | 85 to 94% | 157 to 159 °C | 0 to 29% | pest or weed control at 70 g/ha [2, 9]: 0 to 29%; pest or weed control at 140 g/ha [2, 9]: 0 to 29%; pest or weed control at 35 g/ha [2, 10]: 0 to 29%; pest or weed control at 70 g/ha [2, 10]: 0 to 29%; pest or weed control at 140 g/ha [2, 10]: 0 to 29%; pest or weed control at 35 g/ha [2, 11]: 0 to 29%; pest or weed control at 70 g/ha [2, 11]: 0 to 29%; pest or weed control at 140 g/ha [2, 11]: 0 to 29%; pest or weed control at 35 g/ha [2, 12]: 0 to 29%; pest or weed control at 70 g/ha [2, 12]: 0 to 29%; pest or weed control at 140 g/ha [2, 12]: 0 to 29%; pest or weed control at 35 g/ha [2, 13]: 0 to 29%; pest or weed control at 70 g/ha [2, 13]: 0 to 29%; pest or weed control at 140 g/ha [2, 13]: 0 to 29%; pest or weed control at 35 g/ha [2, 14]: 0 to 29%; pest or weed control at 70 g/ha [2, 14]: 60 to 74%; pest or weed control at 140 g/ha [2, 14]: 60 to 74%
